Earlier results as cited in patent publication US20240269238A1, “Therapeutic Regimens and Methods for Reducing Body Weight in a Subject with Fatty Liver Disease using a GLP-1R and GCGR Agonist” (Spitfire Pharma LLC, priority 2022, published 2024).

Legend:
[1] = over 26 weeks of administration; cited from earlier work
liver fat content = conditions: 6 weeks; cited from earlier work

## CCCCCCCCCCCCCCCC(=O)N[C@@H](CCC(=O)NCCCC[C@H](NC(=O)[C@H](CC(=O)O)NC(=O)[C@H](CO)NC(=O)[C@@H](NC(=O)[C@H](Cc1ccccc1)NC(=O)[C@@H](NC(=O)CNC(=O)[C@H](CCC(N)=O)NC(=O)[C@H](CO)NC(=O)[C@@H](N)Cc1c[nH]cn1)[C@@H](C)O)[C@@H](C)O)C(=O)N[C@@H](CO)C(=O)N[C@@H](CCC(=O)O)C(=O)N[C@@H](Cc1ccc(O)cc1)C(=O)N[C@@H](CC(C)C)C(=O)N[C@@H](CC(=O)O)C(=O)N[C@@H](CO)C(=O)N[C@@H](CCC(=O)O)C(=O)N[C@@H](CCCNC(=N)N)C(=O)N[C@@H](C)C(=O)N[C@@H](CCCNC(=N)N)C(=O)N[C@@H](CC(=O)O)C(=O)N[C@@H](Cc1ccccc1)C(=O)N[C@H](C(=O)N[C@@H](C)C(=O)N[C@@H](Cc1c[nH]c2ccccc12)C(=O)N[C@@H](CC(C)C)C(=O)N[C@@H](CCC(=O)O)C(=O)N[C@@H](C)C(=O)NCC(=O)NCC(=O)O)C(C)C)C(=O)O [cotadutide]
[1]
  weight loss: 5.4%
Liver fat content
  reduction in liver fat content: 39%
